Reference: patent publication US4089961A, “Antipsychotically useful quinolizidylidene derivatives of xanthenes, thioxanthenes and dibenzoxepins” (priority 1976, dated 1978)
Like-named read-outs stand apart in the source and are kept apart here.

Tests used:
[1] = test system: striatal dopamine receptors; experiment: antagonism of amphetamine-induced rotation in rats with unilateral 6-hydroxydopamine lesions of the substantia nigra; type: in vivo, rat; settings: for ED50: Rattus norvegicus, ip, read-out: Antagonism of Amphetamine-induced Rotation Rats ED50; for ED50 for antagonism of amphetamine-induced rotation: rat
Description: (§1) To assess the potency of drugs in blocking striatal dopamine receptors a procedure was used which was developed by Ungerstedt [Ungerstedt and Arbuthnott, Brain Res. 24 485 (1970); Ungerstedt, Acta physiol. scand., Suppl. 367, 49 (1971)] using rats with unilateral lesions of the substantia nigra induced by injection of 6-hydroxydopamine. This treatment causes degeneration of the nigrostriatal dopaminergic pathway accompanied by a marked decrease in the dopamine content of the neostriatum on the side of the lesion. Animals with this lesion develop postural and motor asymmetries which are altered by drugs which effect dopaminergic activity. Amphetamine, which releases dopamine and norepinephrine from catecholaminergic neurons, causes these rats to rotate unidirectionally toward the side of the lesion. Since there is a much larger amount of dopamine to be released by amphetamine from the intact nigrostriatal neurons on the non-lesioned side than from those remaining on the lesioned side, the rotational behavior is apparently due to a preponderance of activation of striatal dopamine receptors on the intact side. The ability of a drug to antagonize the rotational behavior is therefore a measure of its ability to block striatal dopamine receptors and is indicative of its potential to produce EPS.
(§2) To predict the potential ability of a drug to cause EPS, the ratio of its ED50 (i.p.) for antagonism of amphetamine-induced rotation to its ED50 (i.p.) for blockage of shock avoidance acquisition in the rat, a procedure for assessing antipsychotic activity, (R/A ratio) is calculated.

[2] = test system: striatal dopamine receptors; settings: rat, in vivo, ip
Description: There is evidence that antipsychotic drugs cause EPS by interfering with neurotransmission in a nigrostriatal dopaminergic pathway. It is throught that they block dopamine receptors in the neostriatum. Therefore, the ability of a drug to block striatal dopamine receptors is a measure of its EPS liability.
as §1, §2

[3] = clinically established antipsychotics; cited from earlier work
[4] = test system: shock avoidance acquisition; experiment: blockade of shock avoidance acquisition in the rat (procedure for assessing antipsychotic activity); type: in vivo; settings: i.p.
Method: as §2

Row | SMILES | ED50 [1] [mg/kg] | R/A ratio [2] | propensity to cause EPS relative to chlorpromazine [3] | ED50 ([1]; rats, i.p., Table I, R) [mg/kg] | ED50 for blockade of shock avoidance acquisition [4] [mg/kg] | ED50 for antagonism of amphetamine-induced rotation ([1]; i.p.) [mg/kg]
1 | CN(C)CCCN1c2ccccc2Sc2ccc(Cl)cc21 [Chlorpromazine] | 2 |  |  |  |  | 
2 | CSc1ccc2c(c1)N(CCC1CCCCN1C)c1ccccc1S2 (centres unmarked) [Thioridazine, thioridazine] |  | 2.7 | known to produce EPS to a lesser extent than chlorpromazine | 13.7 |  | 
3 | Clc1ccc2c(c1)C(=C1CCC3CCCCN3C1)c1ccccc1S2 (stereo not drawn) [3-(2-chlorothioxanthen-9-ylidene)quinolizidine, isomer havin] |  | 4.8 |  |  | 1.7 | 8.2
4 | O=C(CCCN1CCC(O)(c2ccc(Cl)cc2)CC1)c1ccc(F)cc1 [Haloperidol, haloperidol] |  | 0.3-0.5 | considerably greater propensity to cause EPS than chlorpromazine | 0.05 |  | 
5 | CN1CCN(CCCN2c3ccccc3Sc3ccc(C(F)(F)F)cc32)CC1 [Trifluoperazine, trifluoperazine] |  | 0.3-0.5 | considerably greater propensity to cause EPS than chlorpromazine | 0.12 |  | 
6 | CN1CCN(C2=Nc3cc(Cl)ccc3Nc3ccccc32)CC1 [Clozapine, clozapine] |  |  | known to produce EPS to a lesser extent than chlorpromazine | 25.4 |  | 
7 | Clc1ccc2c(c1)C(=C1CCC3CCCCN3C1)c1ccccc1S2 (stereo not drawn) [3-(2-chlorothioxanthen-9-ylidene)quinolizidine, other isomer] |  | 3.3 |  |  | 0.7 | 2.3
8 | O=c1[nH]c2ccccc2n1C1CCN(CCCC(c2ccc(F)cc2)c2ccc(F)cc2)CC1 [Pimozide, pimozide] | 0.08 |  | considerably greater propensity to cause EPS than chlorpromazine |  |  | 
